The results in this text go back to EP0565317A1, “(2-(2-hydroxy-2 phenylethylamino)ethoxy) phenyl derivatives, processes and intermediates for their preparation, pharmaceutical compositions containing them and their use as Beta-3-adrenoceptor agonists” (ZENECA LIMITED, priority 1992, dated 1993).

Where only a bound is given, the exact number is not on record here.

Assay [1] relates to Rats. The assay can be described thus: Heart rate in rats adapted to a thermoneutral environment; D500 dose and selectivity index (test b). To be noted: selectivity index = ratio of D500 to ED50 in test (a).
Another assay concerns BAT mitochondria. Put plainly: GDP binding in BAT mitochondria of cold-adapted rats as a measure of thermogenic activation (test a). It counts as in vivo. To be noted: Rattus norvegicus, 1 h; oral; dose producing 50% of the effect of isoprenaline (1 mgkg-1) on GDP binding; rats sacrificed one hour after dosing.
The test system of assay [2] is Rats. The assay can be described thus: Metabolic rate by closed-circuit oxygen consumption in fasted rats (test c). Format: in vivo. The note with it: at 1mgkg^-1 p.o.; determined for at least one hour after dosing.

Consider `CC(C)NCC(O)c1ccc(O)c(O)c1` (stereo not shown) [isoprenaline, reference compound], for which the SI in the assay on Rats [1] (route not stated) stood at 0.06.

In the assay with BAT mitochondria, `COCC(=O)Cc1ccc(OCCNCC(O)c2ccccc2)cc1` (stereo not shown) [Example 1, 1-[4-(2-(2-Hydroxy-2-phenylethylamino)ethoxy)phenyl]-3-methoxypropan-2-one] had an ED50 of 0.98 mg/kg. Besides, the metabolic rate in the assay on Rats [2] is recorded as 4.99 ml O2 min^-1 (Kg^0.75)^-1. Further, in the assay with Rats [1] (oral), the SI is > 50.
